Data: patent publication US20190224347A1, “Detection of Renal Amyloidosis by Imaging with Stilbene or Phenylbenzothiazole Derivatives” (Mayo Foundation for Medical Education and Research, priority 2018, published 2019)

Target: T1, leucocyte cell-derived chemotaxin-2 (LECT2) amyloidosis (Homo sapiens, UniProt O14960)
T1 construct: biopsy-confirmed leucocyte cell-derived chemotaxin-2 (LECT2) amyloidosis underwent a positron emission tomography/computed tomography (PET/CT) scan with florbetapir; from tissue; host or cells: Living patient: amyloid deposits in lungs, spleen, adrenal glands, kidneys and bone marrow
T1 sequence (O14960 19-151): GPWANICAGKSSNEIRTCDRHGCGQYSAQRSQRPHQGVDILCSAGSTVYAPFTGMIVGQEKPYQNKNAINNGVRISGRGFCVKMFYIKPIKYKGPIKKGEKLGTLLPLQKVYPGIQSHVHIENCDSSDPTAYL
Assay: PET/CT scan with florbetapir 18F in a patient with biopsy-confirmed LECT2 amyloidosis
Assay type: in vivo
Method: Administration to the subject of a pharmaceutical composition including a radiolabeled stilbene derivative or phenylbenzothiazole derivative chosen from the compounds of Formulas (I) to (VII) above for in vivo detection of the accumulated compound in LECT2-based protein structures can be accomplished intravenously, intraarterially, intrathecally, intramuscularly, intradermally, subcutaneously, or intracavitary. Dosage can vary. In one non-limiting example, dosage may vary from 0.001 μg/kg to 10 μg/kg. In another non-limiting example, the dose for florbetapir may be 370 MBq (10 mCi), maximum 50 μg mass dose, administered as a single intravenous bolus in a total volume of 10 mL or less. The injection may be followed with an intravenous flush of 0.9% sterile sodium chloride. In the method of the invention, sufficient time is allowed after administration such that the radiolabeled stilbene derivative or phenylbenzothiazole derivative can accumulate in any LECT2-based protein structures.
A person with end stage renal disease on haemodialysis secondary to biopsy-confirmed leucocyte cell-derived chemotaxin-2 (LECT2) amyloidosis underwent a positron emission tomography/computed tomography (PET/CT) scan with florbetapir ^18F. […] These organs normally have low activity on florbetapir PET/CT. The activity pattern is consistent with pathological data on the distribution of amyloidosis in this disease. […] A remarkable finding in this patient is the uptake in the kidney because they make little urine and is on chronic haemodialysis.

Structure (SMILES): CNc1ccc(/C=C/c2ccc(OCCOCCOCC[18F])nc2)cc1 [florbetapir ^18F]
- PET/CT activity in bone marrow (PET/CT, same patient, bone marrow): diffuse intense activity above normal background
- PET/CT activity in the heart (PET/CT, same patient, heart): normal background activity
- accumulation in LECT2-based protein structures (positron emission tomography): accumulates within LECT2-based protein structures
